Earlier results as cited in patent publication US20250171456A1, “P[…] AND THEIR THERAPEUTIC USES” (priority 2022, published 2025).

What was measured:
[1] = humans, after oral administration of psilocybin (Passie, 2002)
[2] = Ballesteros, 2006

SMILES	time until psilocin is detectable in significant amounts in the plasma [1] [min]	solubility in water relative to psilocin [2]
CN(C)CCc1c[nH]c2cccc(O)c12 [Psilocin]	20 to 40	
CN(C)CCc1c[nH]c2cccc(OP(=O)(O)O)c12 [Psilocybin]		more soluble in water than psilocin
